Assay results published in patent publication US6291470A, “Indole derivatives process for producing the same and medicinal uses of the same” (Toray Industries, Inc., priority 1992, dated 2001).

Tests used:
[1] = test system: Cerebral cortex nerve cells; assay: Brain cell-protecting action, MTT method; format: cell-based, rat; conditions: 10 μM
Protocol: The brain cell-protecting action was examined by MTT [3-(4,5-dimethylthiazol-2-yl)-2,5-diphenyltetrazolium bromide] method. MTT yields a dark blue formazan compound by mitochondria in living cells. This compound was dissolved in isopropanol and absorbance at 570 nm was measured, thereby measuring the number of living cells.
Cerebral cortex nerve cells of fetal rats of 17 days old were placed in wells of a 96-well plate at a population density of 1×10^5 cells/cm^2. Then 10 μM of a test compound was added and the cells were cultured in 200 μl of mixed medium of D-MEM/F.12 (1:1) for 3 days (37° C., 5%CO2). In a control group, the medium alone was added Then […] of MTT solution in PBS (6mg/ml) was added and the mixture was allowed to react for 3 hours (37° C., 5% CO2). After removing the culture medium, 100 μl of isopropanol was added and the absorbance was measured.
The ratio of the absorbances of the study group and the control group was employed as an index of brain cell-protecting action.

[2] = test system: delayed type hypersensitivity; assay: Mouse Delayed Type Hypersensitivity Reaction Suppression Test-1 (SRBC); format: in vivo; conditions: SRBC sensitization; subcutaneous, everyday from 3 days before sensitization, totally 8 days; BALB/c
Protocol: BALB/c mice (male, 7 weeks old) were used. The mice were classified into groups depending on the body weight, each group consisting of 7-8 mice. Each of the mice was sensitized by subcutaneously administering […] of SRBC (8×10^8 in saline) on the heel of the left hing leg. On day 4 from the sensitization, 25 μl of SRBC (8×10^9 in saline) was subcutaneously administered on the right footpad so as to induce delayed type hypersensitivity. The difference in the thicknesses of the right footpad before the induction of reaction and 24 hours after the induction of the reaction was employed as an index of the degree of the reaction.
The test compound was dissolved in 10% DMSO-water and was subcutaneously administered everyday from 3 days before the sensitization to the day of induction of the reaction, totally 8 days. In the control group, 10% DMSO-water alone was administered in the same manner. The volume of administration was 5 ml/kg in both study groups and in the control group.
The % suppression of the delayed type hypersensitivity reaction was calculated according to the following equation: [formula]
wherein A means the difference in the thickness of the right hind leg before and after the reaction in control group, and B means the difference in the thickness of the right hind leg before and after the reaction in the group to which the test compound was administered.

[3] = test system: delayed type hypersensitivity; assay: Mouse Delayed Type Hypersensitivity Reaction Suppression Test-2 (donor spleen cells, subcutaneous administration); format: in vivo; conditions: C57BL/6 spleen cells; subcutaneous everyday from day of sensitization, totally 8 days; BALB/c
Text: (§1) BALB/c mice (male, 7 weeks old) were used, and each group consisted of 4-5 mice. Spleen cells (1×10^7 ) obtained from a donor mouse (C57BL/6) was subcutaneously administered to sensitize the mice. On Day 7 from the sensitization, the spleen cells (5×10^6) of the donor were subcutaneously administered on the right hing leg and spleen cells (5×10^6) obtained from a mouse of the same line as the recipient mice were subcutaneously administered on the left footpad. Twenty four hours later, the thicknesses of the right and left footpads were measured with a dial thickness gage, and the difference in thicknesses of the right and left footpads before the induction of the reaction and 24 hours after the induction of the reaction was employed as the index of the degree of the reaction.
The test compound was dissolved in 10% DMSO-water and was subcutaneously administered everyday from the day of sensitization to the day of induction of the reaction, totally 8 days. In the control group, 10% DMSO-water alone was administered in the same manner. The volume of administration was 10 ml/kg in both study groups and in the control group. Delayed Type Hypersensitivity Reaction=(thickness of right foodpad after induction-thickness of right footpad before induction)-(thickness of […] before induction) [formula]
wherein C means delayed type hypersensitivity reaction of the group to which the test compound was administered and D means the delayed type hypersensitivity reaction of the group to which vehicle was administered.

[4] = test system: delayed type hypersensitivity; assay: Mouse Delayed Type Hypersensitivity Reaction Suppression Test-3 (administration into cerebral ventricles); format: in vivo; conditions: 5×10^-8 mol/mouse into cerebral ventricles; BALB/c
Text: as §1, with “(1×10^7)” for “(1×10^7 )”, “footpad” for “hing leg”, “strain” for “line”
The test compound was dissolved in water and 5×10^-8 mol/mouse was administered into cerebral ventricles. In the control group, water alone was administered similarly. The dose was 5 μl/mouse in both the study groups and the control group.

immune system = conditions: in vitro and in vivo; Kokai No. 3-223288; cited from earlier work

SMILES: Oc1ccc2c3c1O[C@H]1c4[nH]c5ccccc5c4C[C@@]4(O)[C@@H](C2)N(CC2CC2)CC[C@]314 [NTI, reference compound]
- brain cell-protecting action (in words) ([1]; MTT): has brain cell-protecting action
- Ratio of Absorbances ([1]; study group / control group, 570 nm, 3 days culture): 4.21
- % Suppression [2]: did not suppress
- % Suppression [3]: 60%
- % Suppression [4]: 40%
- immunosuppressive action (in words) (immune system): exhibits immunosuppressive action in vitro and in vivo
